From article PMC9681820, “A PDE10A inhibitor CPL500036 is a novel agent modulating striatal function devoid of most neuroleptic side-effects” (Frontiers in Pharmacology, 2022)
Like-named read-outs stand apart in the source and are kept apart here.

Legend:
[1] = tested on: Salmonella typhimurium TA98; test: Ames test; settings: CPL500036 5000µg/plate, n=3
[2] = tested on: Salmonella typhimurium TA100; settings: CPL500036 5000µg/plate, n=3
[3] = tested on: Salmonella typhimurium TA1535; settings: CPL500036 5000µg/plate, n=3
[4] = tested on: Salmonella typhimurium TA1537; test: Ames test; settings: CPL500036 5000µg/plate, n=3
[5] = tested on: Escherichia coli WP2 uvrA; test: Ames test; settings: CPL500036 5000µg/plate, n=3
[6] = tested on: cardiac 3D spheroids (cardiomyocytes and fibroblasts derived from human pluripotent cells); test: Cardiotoxicity in spontaneously beating cardiac 3D spheroids; type: cell-based; settings: 3D cardiac spheroids; for AC50: Homo sapiens
Description: The cardiotoxic effect of CPL500036 was evaluated in spontaneously beating cardiac 3D spheroids (comprising cardiomyocytes and fibroblasts derived from human pluripotent cells) by Cyprotex (Cheshire, United Kingdom). Experiments were carried out in accordance with the service-provider’s protocol. Specific parameters of cell health were assessed: number and size of spheroids, DNA structure, intracellular level of calcium ions, mitochondrial mass, membrane potential and cellular ATP. […] During the 14 days of the experiment, redosing occurred on three occasions. Spheroid hypertrophy was measured on days 3, 7, 10, and 14 using the “brightfield live cellular imaging” mode of a Cellomics ArrayScan® XTI system (Thermo Scientific, Waltham, MA, United States). On day-14, the spheroid model was analyzed using the confocal mode of Cellomics ArrayScan XTI following incorporation of appropriate fluorescent dyes. Subsequently, cellular ATP content was measured using CellTiterGlo® (Promega, Fitchburg, WI, United States). Mitomicyn C and dasatinib were used as positive controls (Supplementary Table S1).
concentration at which 50% maximum effect is observed for each cell health parameter; NR - No response observed.

[7] = tested on: Sprague–Dawley rats; test: Hyperprolactinemia: plasma prolactin before and 2 h after administration; type: in vivo; settings: 3 mg/kg, p.o., n = 4
Description: Four male Sprague–Dawley rats (∼10 weeks; Mossakowski Medical Research Institute, Polish Academy of Sciences, Warsaw, Poland), underwent gavage with CPL500036 (3 mg/kg), haloperidol (3 mg/kg; as a positive control) or vehicle. Rats were fasted for 16 h before administration. Blood samples from the tail vein were collected immediately before and 2 h after administration. Plasma was obtained by centrifugation (1,600 × g, 20 min, 4°C) of blood samples collected on K2EDTA, and was stored at −80°C until analyses. The prolactin concentration in plasma samples was determined using the Prolactin (rat) EIA kit (Bertin Rockville, MD, United States) according to the manufacturer’s protocol. The prolactin concentration difference was assessed as follows: %∆prolactin=cprolactin, 2h−cprolactin, 0h/[…] (1)

[8] = design: method as in ref Megens A. A. H. P. et al., 2014; Suzuki et al., 2015; Arakawa et al., 2016; settings: compared with marketed antipsychotics; ref Megens A. A. H. P. et al., 2014; Suzuki et al., 2015; Arakawa et al., 2016; cited from earlier work
[9] = molecular target: PDE10A (Homo sapiens, UniProt Q9Y233); design: method as in ref Schmidt et al., 2008; Grauer et al., 2009; Harada et al., 2015; settings: ref Schmidt et al., 2008; Grauer et al., 2009; Harada et al., 2015; read-out: IC50 against PDE10A; cited from earlier work
[10] = With metabolic activation (+S9 mix), 2AA 2µg/plate
[11] = Without metabolic activation (-S9 mix), 9AA 50µg/plate
[12] = read-out: Mitochondrial mass AC50
[13] = read-out: Mitochondrial membrane potential AC50
[14] = Without metabolic activation (-S9 mix), NPD 4µg/plate
[15] = Without metabolic activation (-S9 mix), SAZ 2µg/plate

PDE10A, sequence (Q9Y233 whole entry, species assumed): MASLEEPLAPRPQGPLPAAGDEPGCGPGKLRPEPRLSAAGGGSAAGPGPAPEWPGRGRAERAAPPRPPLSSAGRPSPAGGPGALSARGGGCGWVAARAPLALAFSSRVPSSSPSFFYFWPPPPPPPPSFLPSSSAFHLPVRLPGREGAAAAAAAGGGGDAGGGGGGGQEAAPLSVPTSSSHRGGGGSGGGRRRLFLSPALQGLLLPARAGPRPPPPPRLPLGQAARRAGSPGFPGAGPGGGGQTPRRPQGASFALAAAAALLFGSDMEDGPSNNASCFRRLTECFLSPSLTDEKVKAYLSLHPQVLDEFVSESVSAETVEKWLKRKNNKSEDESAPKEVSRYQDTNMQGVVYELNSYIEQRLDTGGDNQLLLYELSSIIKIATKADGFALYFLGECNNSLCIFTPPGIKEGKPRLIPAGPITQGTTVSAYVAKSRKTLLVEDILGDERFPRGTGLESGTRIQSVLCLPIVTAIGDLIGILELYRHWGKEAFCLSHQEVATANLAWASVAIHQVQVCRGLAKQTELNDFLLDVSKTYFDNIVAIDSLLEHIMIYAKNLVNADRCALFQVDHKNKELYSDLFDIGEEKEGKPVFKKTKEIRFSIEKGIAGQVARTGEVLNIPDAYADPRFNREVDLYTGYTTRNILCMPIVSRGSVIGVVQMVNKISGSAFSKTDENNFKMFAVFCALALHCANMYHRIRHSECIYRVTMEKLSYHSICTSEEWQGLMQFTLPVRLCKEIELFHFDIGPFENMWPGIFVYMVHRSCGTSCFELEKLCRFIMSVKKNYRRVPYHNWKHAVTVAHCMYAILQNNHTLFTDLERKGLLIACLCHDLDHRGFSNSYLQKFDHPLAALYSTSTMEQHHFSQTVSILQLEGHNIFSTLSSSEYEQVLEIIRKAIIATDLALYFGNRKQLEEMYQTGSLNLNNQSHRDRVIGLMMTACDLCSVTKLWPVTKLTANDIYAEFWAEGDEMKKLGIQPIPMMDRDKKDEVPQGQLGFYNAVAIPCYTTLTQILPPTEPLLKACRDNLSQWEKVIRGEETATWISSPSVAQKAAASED

Question: Which results are given for Nc1ccc2cc3ccccc3cc2c1 [2AA, 2-aminoanthracene, reference compound]?
Answer: Mutation rate [1, 10]: 84.13; Revertants Mean±SD [1, 10]: 1682.7±156.02; Mutation rate [2, 10]: 19.26; Revertants Mean±SD [2, 10]: 1464.0±361.88; Mutation rate [3, 10]: 11.38; Revertants Mean±SD [3, 10]: 159.3±15.57; Mutation rate [4, 10]: 9.0; Revertants Mean±SD [4, 10]: 78.0±7.94; Mutation rate [5, 10]: 8.49; Revertants Mean±SD [5, 10]: 203.7±3.79

Question: What does the source list for Nc1c2ccccc2nc2ccccc12 [9AA, 9-Aminoacridine, reference compound]?
Answer: Mutation rate [4, 11]: 50.65; Revertants Mean±SD [4, 11]: 287.0±65.60

Question: Which “Calcium MEC” value [6] does the source give for Cc1nc(Nc2ncc(C(=O)Nc3c(C)cccc3Cl)s2)cc(N2CCN(CCO)CC2)n1 [Dasatinib] here?
Answer: 43.0 µM

Question: What about the “Cellular ATP MEC” value [6] of the same compound?
Answer: 0.075 µM

Question: What about the “DNA structure MEC” value [6] of the same compound?
Answer: 2.92 µM

Question: And the “Mitochondrial mass MEC” value [6]?
Answer: 2.43 µM

Question: And the “Mitochondrial membrane potential MEC” value [6]?
Answer: 16.82 µM

Question: And the “Spheroid size MEC” value [6]?
Answer: 0.469 µM

Question: What about the AC50 ([6]; read-out: Calcium AC50) of the same compound?
Answer: > 50 µM

Question: What about the AC50 ([6]; read-out: Cellular ATP AC50) of the same compound?
Answer: 0.374 µM

Question: And the AC50 ([6]; read-out: DNA structure AC50)?
Answer: > 50 µM

Question: And the AC50 [6, 12]?
Answer: > 5 µM

Question: And the AC50 [6, 13]?
Answer: 26.4 µM

Question: And the AC50 ([6]; read-out: Spheroid count AC50)?
Answer: > 50 µM

Question: And the AC50 ([6]; read-out: Spheroid size AC50)?
Answer: 23.4 µM

Question: For O=C(CCCN1CCC(O)(c2ccc(Cl)cc2)CC1)c1ccc(F)cc1 [Haloperidol], which “prolactin release (relative change in the prolactin level before and 2 h after administration)” value [7] is on record?
Answer: induced significant prolactin release

Question: Which cataleptic effect [8] does the source give for COCCc1ccc(-c2c(C)nc3c(N4CCOCC4)nccn23)cn1 [JNJ-42314,415] here?
Answer: weaker than that for marketed antipsychotics and did not increase with increasing dose

Question: Which Mutation rate ([5]; Without metabolic activation (-S9 mix), MMS 2µg/plate) does the source give for COS(C)(=O)=O [MMS, Methyl methanesulfonate, reference compound] here?
Answer: 33.85

Question: Which “Calcium MEC” value [6] does the source give for CO[C@@]12[C@H](COC(N)=O)C3=C(C(=O)C(C)=C(N)C3=O)N1C[C@@H]1N[C@@H]12 [Mitomycin C] here?
Answer: 79.1 µM

Question: What about the “Cellular ATP MEC” value [6] of the same compound?
Answer: 0.243 µM

Question: And the “DNA structure MEC” value [6]?
Answer: 0.704 µM

Question: And the “Mitochondrial mass MEC” value [6]?
Answer: < 0.04 µM

Question: And the “Mitochondrial membrane potential MEC” value [6]?
Answer: 1.89 µM

Question: And the “Spheroid count MEC” value [6]?
Answer: 2 µM

Question: And the “Spheroid size MEC” value [6]?
Answer: 2.97 µM

Question: And the AC50 ([6]; read-out: Calcium AC50)?
Answer: > 100 µM

Question: What about the AC50 ([6]; read-out: Cellular ATP AC50) of the same compound?
Answer: 0.766 µM

Question: And the AC50 ([6]; read-out: DNA structure AC50)?
Answer: 4.41 µM

Question: What about the AC50 [6, 12] of the same compound?
Answer: 0.731 µM

Question: What about the AC50 [6, 13] of the same compound?
Answer: 3.88 µM

Question: What about the AC50 ([6]; read-out: Spheroid size AC50) of the same compound?
Answer: > 100 µM

Question: Which Mutation rate [1, 14] does the source give for Nc1ccc([N+](=O)[O-])cc1N [NPD, 4-Nitro-1,2-phenylenediamine, reference compound] here?
Answer: 18.6

Question: And the “Revertants Mean±SD” value [1, 14]?
Answer: 335.0±57.51

Question: For Cc1ncc(C)n2nc(/C=C/c3nc(N4CCCC4)cc(N4CCOCC4)n3)nc12 [PDM-042, (E )-4-(2-(2-(5,8-dimethyl-[1,2, 4]triazolo[1,5-a]pyrazin-2-yl)vinyl)-6-(pyrrolidin-1-yl)pyrimidin-4-yl)morpholine], which cataleptic effect [8] is on record?
Answer: weaker than that for marketed antipsychotics and did not increase with increasing dose

Question: Which results are given for [N-]=[N+]=[N-].[Na+] [SAZ, Sodium Azide, reference compound]?
Answer: Mutation rate [2, 15]: 12.76; Revertants Mean±SD [2, 15]: 1093.0±64.66; Mutation rate [3, 15]: 74.21; Revertants Mean±SD [3, 15]: 940.0±91.95

Question: For COc1cn(-c2ccc(-n3cccn3)cc2F)nc(-c2ccnn2-c2ccccc2)c1=O [TAK-063], which cataleptic effect [8] is on record?
Answer: weaker than that for marketed antipsychotics and did not increase with increasing dose

Question: For FC(F)(F)Cn1cc(-c2ccncc2)c(-c2ccc(OCc3ccc4ccccc4n3)cc2)n1 [TP-10], which IC50 [9] is on record?
Answer: 0.0003 µM
